# What was measured:
# JAK1 = JAK1 (Homo sapiens, UniProt P23458); test: Kinase activity test (γ33P-ATP isotopic method), JAK1; type: biochemical
# Method: (§1) This experiment adopted a γ^33p-ATP isotopic test method to test the inhibitory effect of a compound on kinases JAK1, JAK2, JAK3 and TYK2, and obtained a half inhibitory concentration IC50 of the compound for inhibiting activity of the kinase.
# (§2) 20 mM 4-hydroxyethylpiperazine ethanesulfonic acid buffer (Hepes, pH 7.5), 10 mM magnesium chloride (MgCl2), 1 mM ethylene glycol diethyl ether diamine tetraacetic acid (EGTA), 0.02% dodecyl polyethylene glycol ether (Brij35), 0.02 mg/ml bovine serum albumin (BSA), 0.1 mM sodium vanadate (Na3VO4), 2 mM dithiothreitol (DTT), and 1% dimethylsulfoxide (DMSO).
# (§3) A compound is dissolved with 100% DMSO to a specific concentration, and then subjected to gradient dilution by an automatic sampling device to obtain the samples to be tested with different concentrations (DMSO solutions).
# (§4) 3.1 diluting the reaction substrate with the basic reaction buffer;
# (§5) 3.2 adding the kinase into the substrate solution, and gently mixing well;
# (§6) 3.3 adding, by the automatic sampling system, the 100% DMSO diluted compounds with different concentrations into the kinase solution, and incubating for 20 min at room temperature; and
# (§7) 3.4 adding ^33p-ATP (10 μM, 10 μCi/μl) at room temperature to initiate the kinase reaction for a duration of 2 h.
# (§8) The unreacted ATP and the reaction-generated […] in the reaction were removed by an ion exchange filtering system, and then the amount of radioactivity of ^33p isotope in the substrate was detected.
# (§9) According to the amount of radioactivity, the kinase activities in the systems added with the inhibitors of different concentrations were calculated, to obtain the inhibitors' effects of the compounds of different concentrations on the kinase activity; and fitting was performed with graphpad prism to obtain the inhibitory IC50 values of the compounds.
# [1] = tested on: DSS induced mouse ulcerative colitis model; test: Efficacy test in DSS induced mouse ulcerative colitis model; type: in vivo
# Excerpt: Mice of 6-7 weeks old were randomly grouped, 6 mice per group. Purified water was provided ad libitum to the mice in a negative control group, and a 2% solution of dextran sulfate sodium (DSS) was provided ad libitum to the mice in other groups, for 7 consecutive days. During the modeling, medication was given according to the groups, once a day for 7 days (the treatment groups and the mouse numbers can be adjusted according to the specific situation). Within 8-10 days later, the DSS-containing water was replaced with purified water, provided ad libitum to the mice. The normal administration continued for 3 days.
# From the first day of administration, the general conditions such as metal state, eating, drinking and activities of the mice were respectively observed every day, the mice were weighed every day, and the animal stools were collected, evaluated for their traits and subjected to the occult blood test. The disease activity index (DAI) of experimental animals within 1-10 days were comprehensively assessed.
# Scoring was performed according to the above-mentioned standards. The disease activity index (DAI) of each mouse was obtained by summing the scores of weight loss, stool trait and occult blood condition, to evaluate the disease activity. DAI=(score of weight loss+score of stool trait+score of bloody stool)/3, ranging from 0-4.
# The experimental data was processed statistically, and the data are all expressed as mean±SD or mean±SME. The SPSS13.0 software was used for statistical analysis, and the differences among the groups were compared with t test (equal variance) or t′ test (unequal variance).
# TYK2 = TYK2 (Homo sapiens, UniProt P29597); test: Kinase activity test (γ33P-ATP isotopic method), TYK2; type: biochemical; conditions: 33P-ATP 10 μM, 2 h reaction
# Method: as §1, §2, §3, §4, §5, §6, §7, §8, §9
# [2] = tested on: DNBS induced rat Crohn's disease model; test: Therapeutic activity in DNBS induced rat Crohn's disease model; type: in vivo; design: rat colon ulcer area: unit not given beside the values; conditions: for colon weight-length ratio / rat colon ulcer area: 7 days, mean±SD; for colon weight-length ratio: colon weight (g)/length (cm) ratio×100, model group G2 14.6±5.1; for rat colon ulcer area: model group G2 1.54±2.00
# Method: Male wistar rats of 4-5 weeks old were adaptively fed for 5 days, and two days before the experiment, randomly divided into 6 groups:
# Blank control group: G1 (Normal), 4 normal rats were selected and only given with 30% ethanol, 10 mL/kg.
# 0.5 mL of 50 mg/mL DNBS (DNBS dissolved in 30% ethanol) was injected into the colon of rats to induce enteritis in rats, for 40 rats in total. Eight of them were selected as model group G2 (Model), and the remaining 32 rats were administrated.
# Administration group: the rats with DNBS induced enteritis were administered with ABT494 and the compound of Example 2 respectively and divided into G3-G6 groups, 8 rats/group. G3: ABT494, 10 mg/kg-QD; G4: Example 2, 0.3 mg/kg-BID; G5: Example 2, 1 mg/kg-BID; and G6: Example 2, 3 mg/kg-BID.
# The rats were fasted, but fed with water for 48 hours, and a 5% glucose salt solution (10 mL/kg) was used as an energy supplement for experimental animals during the fasting period, once a day. On the day of experimental modeling, the fasting rats were anesthetized with Choutet (25 mg/kg), and then 0.5 mL of 50 mg/mL DNBS was injected from the anus to left colic flexure of the rat (about 8 cm to the anus) to induce rat enteritis. All rats were kept in a […] for 15 min until they were awaken, to prevent the backflow of DNBS. From the day of the experimental modeling, medication was given for 7 days.
# After the DNBS modeling, the weights of the animals were measured and recorded every day, the daily activities of the animals were observed, and the abnormalities were recorded. During the experiment, the stool state of the rats was scored every day. On day 7, the rats were anesthetized with isoflurane (3-5%), blood was taken from the orbit, and the serum was separated and stored at −80° C. All animals were euthanized by cervical vertebra dis location after suffocation from excessive CO2 inhalation. The abdomen was cut, the colorectum was take out and longitudinally dissected, and the stool trait in the colorectum was scored. The colorectum was thoroughly rinsed with ice-cold PBS and then the ulcer surface was observed. The length and weight and ulcer area of the colon were recorded, the weight-length ratio (colon weight (g)/length (cm) ratio×100) was calculated, and the overall picture was taken. All intestinal tissue was longitudinally divided into two parts, where one part was fixed with 4% neutral […] and embedded with paraffin, and the rest colon sample was cryopreserved at −80° C.
# Excel and Graphapad software were used for statistical analysis, and the results were expressed as mean±SD.
# Chain of JAK1 (P23458 whole entry): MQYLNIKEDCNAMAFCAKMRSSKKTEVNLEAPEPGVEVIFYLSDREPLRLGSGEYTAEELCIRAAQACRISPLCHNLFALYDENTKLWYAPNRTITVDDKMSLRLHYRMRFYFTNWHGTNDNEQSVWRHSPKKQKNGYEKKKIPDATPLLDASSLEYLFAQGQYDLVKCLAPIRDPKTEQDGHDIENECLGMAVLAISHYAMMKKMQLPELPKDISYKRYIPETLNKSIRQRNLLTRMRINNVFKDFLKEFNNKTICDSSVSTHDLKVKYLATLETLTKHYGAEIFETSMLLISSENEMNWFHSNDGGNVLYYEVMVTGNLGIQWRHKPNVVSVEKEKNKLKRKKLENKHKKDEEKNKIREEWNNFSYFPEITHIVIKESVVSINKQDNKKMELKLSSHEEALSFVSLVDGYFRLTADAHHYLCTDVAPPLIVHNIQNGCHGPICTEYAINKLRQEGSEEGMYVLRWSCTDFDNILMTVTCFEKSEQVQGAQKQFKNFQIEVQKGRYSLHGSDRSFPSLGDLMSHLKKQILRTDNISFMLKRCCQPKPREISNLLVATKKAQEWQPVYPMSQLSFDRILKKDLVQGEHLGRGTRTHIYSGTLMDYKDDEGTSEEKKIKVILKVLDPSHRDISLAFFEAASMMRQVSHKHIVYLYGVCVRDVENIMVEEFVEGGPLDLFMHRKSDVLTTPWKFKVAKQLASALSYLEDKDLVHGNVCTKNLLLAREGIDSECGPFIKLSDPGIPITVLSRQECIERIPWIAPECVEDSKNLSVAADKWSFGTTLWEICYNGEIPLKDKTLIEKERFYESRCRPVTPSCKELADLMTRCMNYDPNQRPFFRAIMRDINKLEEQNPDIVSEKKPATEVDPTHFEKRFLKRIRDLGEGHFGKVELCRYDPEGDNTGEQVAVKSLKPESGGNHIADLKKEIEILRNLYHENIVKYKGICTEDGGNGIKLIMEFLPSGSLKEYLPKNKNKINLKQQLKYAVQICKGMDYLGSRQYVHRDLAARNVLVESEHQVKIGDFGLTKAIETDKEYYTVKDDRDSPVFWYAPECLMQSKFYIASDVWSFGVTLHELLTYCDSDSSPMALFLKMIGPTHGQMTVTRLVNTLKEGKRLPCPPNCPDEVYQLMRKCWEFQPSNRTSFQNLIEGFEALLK
# Chain of TYK2 (P29597 whole entry): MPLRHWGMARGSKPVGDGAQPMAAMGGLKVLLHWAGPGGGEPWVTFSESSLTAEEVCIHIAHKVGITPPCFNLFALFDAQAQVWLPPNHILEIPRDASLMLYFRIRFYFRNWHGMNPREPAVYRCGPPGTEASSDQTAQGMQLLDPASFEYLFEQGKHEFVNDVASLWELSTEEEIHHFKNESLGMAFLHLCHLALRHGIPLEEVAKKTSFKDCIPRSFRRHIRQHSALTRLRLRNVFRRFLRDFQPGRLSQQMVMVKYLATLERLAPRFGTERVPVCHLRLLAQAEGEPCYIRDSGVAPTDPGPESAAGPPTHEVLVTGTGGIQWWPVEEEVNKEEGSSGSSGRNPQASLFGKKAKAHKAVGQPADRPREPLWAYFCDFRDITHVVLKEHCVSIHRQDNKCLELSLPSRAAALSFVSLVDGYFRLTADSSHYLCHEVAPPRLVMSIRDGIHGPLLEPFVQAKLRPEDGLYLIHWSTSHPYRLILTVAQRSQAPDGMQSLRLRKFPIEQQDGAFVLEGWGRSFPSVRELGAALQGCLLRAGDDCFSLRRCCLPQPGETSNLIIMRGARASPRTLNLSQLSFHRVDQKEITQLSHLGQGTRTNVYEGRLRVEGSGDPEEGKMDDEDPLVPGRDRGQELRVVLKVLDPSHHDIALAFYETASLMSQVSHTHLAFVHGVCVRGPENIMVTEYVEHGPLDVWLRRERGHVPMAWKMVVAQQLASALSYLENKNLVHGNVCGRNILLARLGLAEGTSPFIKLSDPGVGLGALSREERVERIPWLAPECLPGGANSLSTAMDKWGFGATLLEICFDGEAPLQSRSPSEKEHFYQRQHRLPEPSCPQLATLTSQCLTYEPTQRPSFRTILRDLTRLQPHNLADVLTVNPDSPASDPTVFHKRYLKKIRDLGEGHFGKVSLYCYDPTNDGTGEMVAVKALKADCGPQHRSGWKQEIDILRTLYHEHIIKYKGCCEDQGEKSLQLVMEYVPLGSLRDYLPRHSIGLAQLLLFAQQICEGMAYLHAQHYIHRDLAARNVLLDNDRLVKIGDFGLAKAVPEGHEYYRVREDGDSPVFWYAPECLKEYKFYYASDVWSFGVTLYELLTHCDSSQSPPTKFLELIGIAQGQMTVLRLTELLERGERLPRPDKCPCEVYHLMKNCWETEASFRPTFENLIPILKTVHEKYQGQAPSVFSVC
structure (smiles),measurement,setting,value
"NC(=O)c1cnc2[nH]ccc2c1NN1CCC[C@H](C(=O)NCC(F)F)C1 [Example 2, (S)-4-(3-(2,2-difluoroethylcarbamoyl)piperidine-1-amino)-1H-7-azaindole-5-carboxamide]",IC50,"JAK1; 33P-ATP 10 μM, 2 h reaction",0.15 nM
same,activity in inhibiting the JAK1 kinase compared with Tofacitinib (in words),JAK1; conclusion from Table 1,higher activity in inhibiting the JAK1 kinase than the positive drug control Tofacitinib
same,DAI score on day 8,"[1]; 5 mg/kg group, once a day, mouse DSS model, DAI range 0-4",1.5
same,effect on DSS induced enteritis in mice (in words),[1]; relatively low dose,significant effect in inhibiting the DSS induced enteritis in mice
same,IC50,TYK2,1.49 nM
same,colon weight-length ratio,"[2]; G4, 0.3 mg/kg-BID",10.5±3.9
same,rat colon ulcer area,"[2]; G4, 0.3 mg/kg-BID",0.83±1.00
same,colon weight-length ratio,"[2]; G5, 1 mg/kg-BID",10.0±1.9
same,rat colon ulcer area,"[2]; G5, 1 mg/kg-BID",0.65±1.05
same,colon weight-length ratio,"[2]; G6, 3 mg/kg-BID",10.5±2.0
same,rat colon ulcer area,"[2]; G6, 3 mg/kg-BID",0.76±1.21
same,effect on DNBS induced enteritis of the rats (in words),[2]; relatively low dose,significant effect in inhibiting the DNBS induced enteritis of the rats

# From patent US12304910B2, “Janus kinase (JAK) family inhibitor, preparation of same, and applications thereof” (JIANGSU VCARE PHARMATECH CO., LTD., priority 2019, dated 2025)
